According to patent publication US8017772B2, “Substituted tetrahydropyrrolopyrazine compounds and the use thereof in the treatment and/or inhibition of pain” (Gruenenthal GmbH, priority 2006, dated 2011):
pEC50: −log10 of the molar value.

Columns and labels:
hKCNQ2/3 [1] = target: T1, hKCNQ2/3 (Homo sapiens, UniProt O43525+O43526); experiment: Fluorescence assay using a voltage sensitive dye (BMG); assay type: cell-based; details: CHO-K1 cells expressing KCNQ2/3; for activation at 10 µM: agonistic activity at 10 μM, read-out: BMG AG %@10 μm
Method: 11. Biological Data 12. Fluorescence Assay Using a Voltage Sensitive Dye
Human CHO-K1 cells expressing KCNQ2/3 channels are cultivated adherently at 37° C., 5% CO2 and 95% humidity in cell culture bottles (e.g. 80 cm^2 TC flasks, Nunc) with MEM Alpha Medium (1×, liquid, Invitrogen, #22571), 10% fetal calf serum (FCS) (Invitrogen, #10270-106, heat-inactivated) and the necessary selection antibiotics.
Before being sown out for the measurements, the cells are washed with a 1×DPBS buffer without Ca^2+/Mg^2+ (e.g. Invitrogen, #14190-094) and detached from the bottom of the culture vessel by means of Accutase (PAA Laboratories, #L11-007) (incubation with Accutase for 15 min at 37° C.). The cell count then present is determined using a CASY™ cell counter (TCC model, Schärfe System) in order subsequently to apply 20,000 cells/well/100 μl of the described nutrient medium to 96-well measuring plates of the Corning™ CellBIND™ type (Flat Clear Bottom Black Polystyrene Microplates, #3340). Incubation is then carried out for one hour at room temperature, without gassing or adjusting the humidity, followed by incubation for 24 hours at 37° C., 5% CO2 and 95% humidity.
The voltage-sensitive fluorescent dye from the Membrane Potential Assay Kit (Red™ Bulk format part R8123 for FLIPR, Molecular Devices™) is prepared by dissolving the contents of a vessel Membrane Potential Assay Kit Red Component A in 200 ml of extracellular buffer (ES buffer, 120 mM NaCl, 1 mM KCl, 10 mM HEPES, 2 mM CaCl2, 2 mM MgCl2, 10 mM glucose; pH 7.4). After removal of the nutrient medium, the cells are washed with 200 μl of ES buffer, then covered with a layer of 100 μl of the dye solution prepared above and incubated for 45 min at room temperature with the exclusion of light.
The fluorescence measurements are carried out with a BMG Labtech FLUOstar™ or BMG Labtech POLARstar™ instrument (525 nm excitation, 560 nm emission, Bottom Read mode). After incubation of the dye, […] of the test substances in the desired concentrations, or 50 μl of ES buffer for control purposes, are introduced into separate cavities of the measuring plate and incubated for 30 min at room temperature while being shielded from light. The fluorescence intensity of the dye is then measured for 5 min and the fluorescence value F1 of each well is thus determined at a given, constant time. 15 μl of a […] KCl solution ([…]) are then added to each well. The change in fluorescence is subsequently measured until all the relevant measured values have been obtained (mainly 5-30 min). At a given time after KCl application, a fluorescence value F2 is determined, in this case at the time of the fluorescence peak.
For calculation, the fluorescence intensity F2 is compared with the fluorescence intensity F1, and the agonistic activity of the target compound on the potassium channel is determined therefrom. F2 and F1 are calculated as follows:
[formula] In order to determine whether a substance has an agonistic effect,
[formula] for example, can be compared with
[formula] determined by adding to the reaction batch only the buffer solution instead of the substance to be tested, determining the value F1K of the fluorescence intensity, adding the potassium ions as described above and measuring a value F2K of the fluorescence intensity. Then F2K and F1K are calculated as follows: […]
A substance has an agonistic activity on the potassium channel when
[formula] is greater than
[formula] Independently of the comparison of
[formula] it is also possible to conclude that a target compound has agonistic activity if an increase in
[formula] is to be observed as the dosage of the target compound increases. Calculations of EC50 and IC50 values are carried out with the aid of “Prism 4” software (GraphPad Software™). The following compounds were tested by way of example: […]

hKCNQ2/3 [2] = target: T1, hKCNQ2/3; experiment: Voltage clamp (patch-clamp) measurements on stably transfected hKCNQ2/3 CHO-K1 cell line; assay type: cell-based; details: potential −40 mV, relative to retigabine (RG = 1)
Method: Voltage Clamp Measurements
In order to confirm a KCNQ2/3-agonistic action of the substances electrophysiologically, patch-clamp measurements (Hamill et al., 1981) were carried out in voltage clamp mode on a stably transfected hKCNQ2/3 CHO-K1 cell line. After formation of the gigaseal, the cells were first clamped at a holding potential of −60 mV. Thereafter, depolarizing voltage jumps were applied up to a potential of +20 mV (increment: 20 mV, duration: 1 second) in order to confirm the functional expression of KCNQ2/3-typical currents. The testing of the substances was carried out at a potential of −40 mV. The increase in current induced by retigabine (10 at −40 mV was first recorded as a positive control on each cell. After complete washing out of the retigabine effect (duration: 80 s), the test substance was applied. • See: Hamill O P, Marty A, Neher E, Sakmann B, Sigworth F J.: Improved patch-clamp techniques for high-resolution current recording from cells and cell-free membrane patches. Pflugers Arch. 1981 August; 391(2):85-100.

Row | SMILES | activation at 10 µM (hKCNQ2/3 [1]) | pEC50 (hKCNQ2/3 [1]) | MAN rel eff @ 10 μM [RG = 1] (hKCNQ2/3 [2])
1 | O=C(CCC(=O)N1CCn2cccc2C1c1ccc(Cl)cc1)NCc1cccc(C(F)(F)F)c1 (centres unmarked) [Example 1, 4-[1-(4-chloro-phenyl)-3,4-dihydro-1H-pyrrolo[1,2-a]pyrazin-2-yl]-4-oxo-N-(3-trifluoromethyl-benzyl)-butyramide] | 69% |  | 
2 | Cc1cccc(C2c3cccn3CCN2C(=O)CCC(=O)NCc2cccc(C(F)(F)F)c2)c1 (centres unmarked) [Example 5, 4-oxo-4-(1-m-tolyl-3,4-dihydro-1H-pyrrolo[1,2-a]pyrazin-2-yl)-N-(3-trifluoromethyl-benzyl)-butyramide] | 28% |  | 
3 | O=C(CN1CCn2cccc2C1c1ccc2c(c1)OCCO2)NCc1cccc(C(F)(F)F)c1 (centres unmarked) [Example 8, 2-[1-(2,3-dihydro-benzo[1,4]dioxin-6-yl)-3,4-dihydro-1H-pyrrolo[1,2-a]pyrazin-2-yl]-N-(3-trifluoromethyl-benzyl)-acetamide] |  | 5.53 | 
4 | COc1cccc(C2c3cccn3CCN2CC(=O)NCc2cccc(C(F)(F)F)c2)c1 (centres unmarked) [Example 20, 2-(1-(3-methoxyphenyl)-3,4-dihydropyrrolo[1,2-a]pyrazin-2(1H)-yl)-N-(3-(trifluoromethyl)benzyl)acetamide] | 21% |  | 
5 | Cc1ccc(C2c3cccn3CCN2CC(=O)NCc2cccc(C(F)(F)F)c2)cc1 (centres unmarked) [Example 37, 2-(1-p-tolyl-3,4-dihydro-1H-pyrrolo[1,2-a]pyrazin-2-yl)-N-(3-trifluoromethyl-benzyl)-acetamide] | 24% |  | 
6 | CC(NC(=O)CCC(=O)N1CCn2cccc2C1Cc1ccccc1)c1cccc(C(F)(F)F)c1 (centres unmarked) [Example 80, 4-(1-benzyl-3,4-dihydropyrrolo[1,2-a]pyrazin-2(1H)-yl)-4-oxo-N-(1-(3-(trifluoromethyl)phenyl)ethyl)butanamide] | 10% |  | 
7 | CC(NC(=O)CCC(=O)N1CCn2cccc2C1c1ccccc1)c1cccc(C(F)(F)F)c1 (centres unmarked) [Example 81, 4-oxo-4-(1-phenyl-3,4-dihydropyrrolo[1,2-a]pyrazin-2(1H)-yl)-N-(1-(3-(trifluoromethyl)phenyl)ethyl)butanamide] |  | 5.53 | 0.25
8 | CC(NC(=O)CCC(=O)N1CCn2cccc2C1c1cccs1)c1cccc(C(F)(F)F)c1 (centres unmarked) [Example 82, 4-oxo-4-(1-(thiophen-2-yl)-3,4-dihydropyrrolo[1,2-a]pyrazin-2(1H)-yl)-N-(1-(3-(trifluoromethyl)phenyl)ethyl)butanamide] |  | 5.28 | 0.11
9 | O=C(CCC(=O)N1CCn2cccc2C1c1ccccc1)NCc1cccs1 (centres unmarked) [Example 83, 4-oxo-4-(1-phenyl-3,4-dihydropyrrolo[1,2-a]pyrazin-2(1H)-yl)-N-(thiophen-2-ylmethyl)butanamide] |  | 4.84 | 
10 | CC1c2cccn2CCN1C(=O)CCC(=O)NCc1ccc(F)cc1 (centres unmarked) [Example 85, N-(4-fluorobenzyl)-4-(1-methyl-3,4-dihydropyrrolo[1,2-a]pyrazin-2(1H)-yl)-4-oxobutanamide] | 0% |  | 
11 | CC1c2cccn2CCN1C(=O)CCC(=O)NCc1cccc(C(F)(F)F)c1 (centres unmarked) [Example 86, 4-(1-methyl-3,4-dihydropyrrolo[1,2-a]pyrazin-2(1H)-yl-4-oxo-N-(3-trifluoromethyl)benzyl)butanamide] |  | 4.94 | 
12 | O=C(CCc1cccc(C(F)(F)F)c1)NCC(=O)N1CCn2cccc2C1c1ccccc1 (centres unmarked) [Example 87] | 3% |  | 
13 | O=C(CCCc1ccccc1)NCC(=O)N1CCn2cccc2C1c1ccccc1 (centres unmarked) [Example 88, N-(2-oxo-2-(1-phenyl-3,4-dihydropyrrolo[1,2-a]pyrazin-2(1H)-yl)ethyl)-4-phenylbutanamide] | 5% |  | 
14 | O=C(CC(=O)N1CCn2cccc2C1c1ccccc1)NCc1cccc(C(F)(F)F)c1 (centres unmarked) [Example 89, 3-oxo-3-(1-phenyl-3,4-dihydropyrrolo[1,2-a]pyrazin-2(1H)-yl)-N-(3-(trifluoromethyl)benzyl)propanamide] |  | 5.34 | 
15 | O=C(CC(=O)N1CCn2cccc2C1c1ccccc1)Nc1cccc(C(F)(F)F)c1 (centres unmarked) [Example 90] | -20% |  | −0.46
16 | O=C(CN1CCn2cccc2C1c1ccccc1)NCc1cccc(C(F)(F)F)c1 (centres unmarked) [Example 91, 2-(1-phenyl-3,4-dihydropyrrolo[1,2-a]pyrazin-2(1H)-yl)-N-(3-(trifluoromethyl)benzyl)acetamide] | 9% |  | 
17 | O=C(/C=C/c1ccccc1F)NCC(=O)N1CCn2cccc2C1c1ccccc1 (centres unmarked) [Example 92, (E)-3-(2-fluorophenyl)-N-(2-oxo-2-(1-phenyl-3,4-dihydropyrrolo[1,2-a]pyrazin-2(1H)-yl)ethyl)acrylamide] | 7% |  | 
